Laboratory results as given in patent publication US20030096831A1, “Ocular growth and nicotinic antagonists” (priority 2000, published 2003).
Where “and” joins values, the source holds several entries; their conditions need not be identical. Equal values may be shown once. Entries after “also recorded” stand apart in the source; their conditions may differ. Where a name gives a salt, the structure may show the parent alone.

What was measured:
[1] = system: chick eye (intraocular muscles, refraction, ocular dimensions); assay: Acute drug effects after a single intravitreal injection (pupil, refractometry, ultrasonography); assay type: in vivo, chicks
Experimental: Acute drug effects. To assess acute drug effects, other two-week old chicks (n=5/group) received a single unilateral intravitreal injection of one of the nicotinic antagonists at doses chosen based on drug effects on the growth of goggled eyes: 200 μg chlorisondamine, 50 μg and 1 μg mecamylamine, 5 μg methyllycaconitine or […] dihydro-β-erythroidine. Just before and at two hours and 24 hours after injection, both eyes were examined by refractometry and ultrasonography by the above methods.

[2] = system: goggled eyes (form-deprivation myopia); assay: Form-deprivation myopia in unilaterally goggled chicks, intravitreal drug for one week; conditions: for axial length measured by digital calipers, goggled eyes, drug effect / axial length measured by ultrasound, goggled eyes, drug effect / equatorial diameter measured by calipers (equatorial expansion of vitreous cavity), goggled eyes, drug effect / vitreous cavity length measured by ultrasound, goggled eyes, drug effect / refraction of goggled eyes (myopic refractive error), drug effect: difference goggled vs contralateral open eye, ANOVA over all doses
non-goggled eyes = assay: Eye growth and refraction of non-goggled (open) eyes, intravitreal drug for one week; conditions: daily intravitreal injections, one week, doses of 50, 10 or 1 μg
[3] = system: retina, retinal pigment epithelium, choroid; assay: Histopathological effects on goggled and never-goggled eyes; assay type: in vivo, chicks; conditions: 200 or 50 μg daily, one week; goggled and non-goggled eyes
Experimental: Histopathological effects. To identify potential histopathologic effects in other groups of monocularly deprived or never-goggled one-week old chicks, chlorisondamine (200 or 100 μg every other day; n=5-6/group), mecamylamine (200 or 50 μg daily; n=5-8/group) or saline vehicle (n=3-9/group) was administered by intravitreal injection to the goggled eyes or to one of the open eyes of never-goggled chicks with vehicle to the contralateral eye, using the identical protocol as above. After one week of treatment, the above protocols provided refraction, ultrasound and caliper measurements. The eyes were then immersion fixed in 3% glutaraldehyde/0.5% paraformaldehyde in 0.1M phosphate buffer, pH 7.4. The posterior segments were either embedded in paraffin, cut at 5 μm thickness and stained with hematoxylin and eosin, or embedded in historesin, cut at 3 μm or 5 μm thickness and stained with 0.5% azure II/0.5% methylene blue in 1% borate.

[4] = two hours after single intravitreal injection of 50 μg
[5] = intravitreal, one week, hydrobromide
[6] = intravitreal, one week, listed as Dihydro-β-erythroidine, hydrobromide
[7] = goggled chicks, P<0.05, dose groups that differ

## Br.COC1CC=C2CCN3CCC4=C(CC(=O)OC4)C23C1 (stereo not drawn) [dihydro-β-erythroidine, dihydro-β-crythroidine hydrobromide]
[1]; [4]
  pupil diameter, change from baseline: 1.0±0.1 mm
[2]; intravitreal, one week
  axial length measured by digital calipers, goggled eyes, drug effect: significant reduction
  axial length measured by ultrasound, goggled eyes, drug effect: none of the differences in refraction, ultrasound measurements or caliper measurements of the equatorial diameter reached statistical significance
  equatorial diameter measured by calipers (equatorial expansion of vitreous cavity), goggled eyes, drug effect: none of the differences in refraction, ultrasound measurements or caliper measurements of the equatorial diameter reached statistical significance
  vitreous cavity length measured by ultrasound, goggled eyes, drug effect: none of the differences in refraction, ultrasound measurements or caliper measurements of the equatorial diameter reached statistical significance
[2]; [5]
  refraction of goggled eyes (myopic refractive error), drug effect: had no effect on the refraction of visually deprived eyes
  overall effect on excessive ocular growth / experimental myopia of goggled eyes: weaker as only the axial measurements by calipers showed a statistically significant drug effect
[2]; [6]
  refraction of goggled eyes (myopic refractive error), drug effect: none of the differences in refraction, ultrasound measurements or caliper measurements of the equatorial diameter reached statistical significance
  overall effect on excessive ocular growth / experimental myopia of goggled eyes: only a weak effect against experimental myopia
[2]; [7]
  Caliper measurements axial length: statistically significant post hoc pairwise comparisons (Tukey test): no individual drug dose was identified

## CCN1C[C@]2(COC(=O)c3ccccc3N3C(=O)C[C@H](C)C3=O)CC[C@H](OC)[C@@]34[C@@H]5C[C@H]6[C@H](OC)[C@@H]5[C@](O)(C[C@@H]6OC)[C@](O)([C@@H](OC)[C@H]23)[C@@H]14 [methyllycaconitine, methyllcaconitine citrate]
[1]; two hours after single intravitreal injection of 5 μg
  pupil diameter, change from baseline: 0.4±0.2 mm
[2]; intravitreal, one week, ANOVA
  anterior chamber depth of goggled eyes, drug effect: no effect

## CNC1(C)C2CCC(C2)C1(C)C (centres unmarked) [mecamylamine]
[1]; 24 hours after single intravitreal injection of 50 μg
  pupil diameter, change from baseline: 0.4±0.1 mm
[1]; two hours after single intravitreal injection of 1 μg
  pupil diameter, change from baseline: 0.8±0.2 mm
[1]; [4]
  pupil diameter, change from baseline: 0.3±0.1 mm
[2]; 50 μg daily intravitreal, one week
  induced myopia (refraction) of goggled eyes at the 50 μg dose: virtually eliminated the induced myopia
[2]; intravitreal, one week
  axial length measured by digital calipers, goggled eyes, drug effect: no statistical effect
  axial length measured by ultrasound, goggled eyes, drug effect: only a trend towards a drug effect
  equatorial diameter measured by calipers (equatorial expansion of vitreous cavity), goggled eyes, drug effect: influenced
  refraction of goggled eyes (myopic refractive error), drug effect: altered refraction of goggled eyes; also recorded: influenced the myopic refraction occurring beneath a goggle
  vitreous cavity length measured by ultrasound, goggled eyes, drug effect: influenced the ultrasound measurements of vitreous cavity length
  overall effect on excessive ocular growth / experimental myopia of goggled eyes: multiphasic response that differed between the low and high drug doses; also recorded: reduced the excessive ocular growth occurring beneath a goggle
[2]; [7]
  Caliper measurements equatorial diameter: statistically significant post hoc pairwise comparisons (Tukey test): did not identify any individual doses that differed from the controls
  Ultrasound measurements vitreous cavity depth: statistically significant post hoc pairwise comparisons (Tukey test): 50 μg vs. 1 μg
  refraction: statistically significant post hoc pairwise comparisons (Tukey test): only the 50 μg dose differed significantly from the controls and 200 μg vs. 1 μg and 100 μg vs. 1 μg
[2]; goggled chicks, P<0.05, dose groups that differ, listed as Mecamylamine
  Ultrasound measurements vitreous cavity depth: statistically significant post hoc pairwise comparisons (Tukey test): the 1 μg dose as different from the 50 μg dose but not from the controls
[2]; lowest doses (1 and 10 μg) daily intravitreal
  growth and myopic refractive shift of goggled eyes at the lowest doses: tended toward stimulating the growth and myopic refractive shift of goggled eyes
non-goggled eyes
  growth or refraction of non-goggled eyes: no influence
[3]
  retinas, gross and histological appearance: indistinguishable grossly or histologically from vehicle treated control eyes
